Assay results as given in US9605005B2, “Alkynyl alcohols and methods of use” (Genentech, Inc., priority 2013, dated 2017).

target: nuclear factor-kappa B (NF-kB)-inducing kinase (NIK) (Homo sapiens (Human), UniProt Q99558); assay: NIK enzyme inhibition assay (Transcreener ADP, NIK ADP-FP); type: biochemical; details: purified NIK 0.5 nM, 10 μM ATP, fluorescence polarization; read-out: NIK ADP-FP (Ki μM)
Sequence (Q99558 whole entry): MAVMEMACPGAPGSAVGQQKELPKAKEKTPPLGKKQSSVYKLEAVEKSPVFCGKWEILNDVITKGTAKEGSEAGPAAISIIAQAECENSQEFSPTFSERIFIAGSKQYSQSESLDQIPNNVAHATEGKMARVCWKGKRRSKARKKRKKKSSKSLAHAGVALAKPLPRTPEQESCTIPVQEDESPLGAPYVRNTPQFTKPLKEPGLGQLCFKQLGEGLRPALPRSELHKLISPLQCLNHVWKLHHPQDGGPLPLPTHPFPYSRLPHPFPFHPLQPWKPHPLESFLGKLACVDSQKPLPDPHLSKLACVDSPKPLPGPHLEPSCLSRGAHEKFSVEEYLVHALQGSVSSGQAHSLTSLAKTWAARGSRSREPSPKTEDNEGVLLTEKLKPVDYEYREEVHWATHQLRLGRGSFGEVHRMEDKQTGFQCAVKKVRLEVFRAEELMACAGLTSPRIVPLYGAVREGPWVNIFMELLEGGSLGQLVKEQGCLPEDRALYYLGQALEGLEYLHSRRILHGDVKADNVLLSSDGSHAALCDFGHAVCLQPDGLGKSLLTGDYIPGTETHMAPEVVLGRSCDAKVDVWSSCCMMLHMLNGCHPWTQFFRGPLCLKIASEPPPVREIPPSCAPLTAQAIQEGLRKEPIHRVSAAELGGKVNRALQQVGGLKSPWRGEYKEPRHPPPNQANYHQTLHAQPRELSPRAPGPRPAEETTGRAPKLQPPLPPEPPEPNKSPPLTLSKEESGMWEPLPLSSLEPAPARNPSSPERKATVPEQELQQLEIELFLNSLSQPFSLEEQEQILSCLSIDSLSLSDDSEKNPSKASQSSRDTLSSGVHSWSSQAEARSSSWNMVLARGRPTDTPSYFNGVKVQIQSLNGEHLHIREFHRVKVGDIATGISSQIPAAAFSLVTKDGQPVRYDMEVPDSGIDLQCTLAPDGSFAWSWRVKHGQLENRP

Row | Compound | Ki [nM]
1 | CN1CC[C@@](O)(C#Cc2cccc(-n3nc(C(N)=O)c4c3CS(=O)(=O)CC4)c2)C1=O [Compound 68, 1-[3-[2-[(3R)-3-hydroxy-1-methyl-2-oxo-pyrrolidin-3-yl]ethynyl]phenyl]-6,6-dioxo-5,7-dihydro-4H-thiopyra-no[3,4-c]pyrazole-3-carbox-amide] | 237
2 | Cc1cc(C(N)=O)nn1-c1cc(C#C[C@]2(O)CCN(C)C2=O)ccn1 [Compound 79, 1-[4-[2-[(3R)-3-hydroxy-1-methyl-2-oxo-pyrrolidin-3-yl]ethynyl]-2-pyridyl]-5-meth-yl-pyrazole-3-carboxamide] | 10.8
3 | Cc1cc([C@](C)(O)C#Cc2ccnc(-n3nc(C(N)=O)cc3C)c2)no1 [Compound 80, 1-[4-[(3R)-3-hydroxy-3-(5-methylisoxazol-3-yl)but-1-ynyl]-2-pyridyl]-5-methyl-pyrazole-3-carboxamide] | 84.5
4 | Cc1cc([C@](C)(O)C#Cc2ccnc(-n3nc(C(N)=O)c(Cl)c3C)c2)no1 [Compound 82, 4-chloro-1-[4-[(3R)-3-hydroxy-3-(5-methylisoxazol-3-yl)but-1-ynyl]-2-pyridyl]-5-methyl-pyrazole-3-carboxamide] | 99.1
5 | CN1CC[C@@](O)(C#Cc2cccc(-c3nc(C(N)=O)c4n3CCCC4)c2)C1=O [Compound 84, 3-[3-[2-[(3R)-3-hydroxy-1-methyl-2-oxo-pyrrolidin-3-yl]ethynyl]phenyl]-5,6,7,8-tetra-hydroimidazo[1,5-a]pyri-dine-1-carboxamide] | 33.9
6 | CN1CC[C@@](O)(C#Cc2cccc(-c3nc(C(N)=O)n4c3NCC4)c2)C1=O [Compound 87, 7-[3-[2-[(3R)-3-hydroxy-1-methyl-2-oxo-pyrrolidin-3-yl]ethynyl]phenyl]-2,3-dihy-dro-1H-imidazo[1,5-a]imida-zole-5-carboxamide] | 20.4
7 | NC(=O)c1nn(-c2cccc(C#C[C@@]3(O)CCCC3=O)c2)c2ccccc12 [Compound 115, 1-[3-[2-[(1S)-1-hydroxy-2-oxo-cyclopentyl]ethynyl]phe-nyl]indazole-3-carboxamide] | 86.1
8 | C[C@](O)(C#Cc1cccc(-n2nc(C(N)=O)c3ccccc32)c1)c1c[nH]nn1 [Compound 118, 1-[3-[(3S)-3-hydroxy-3-(1H-triazol-4-yl)but-1-ynyl]phenyl]indazole-3-carboxamide] | 16.6
9 | CN1CC[C@@](O)(C#Cc2cccc(-n3nc(C(N)=O)c4c3CCN([S@@+](C)[O-])C4)c2)C1=O [Compound 123, 1-[3-[2-[(3R)-3-hydroxy-1-methyl-2-oxo-pyrrolidin-3-yl]ethynyl]phenyl]-5-[(R)-methylsulfinyl]-6,7-dihydro-4H-pyrazolo[4,3-c]pyridine-3-carboxamide] | 18
10 | CN1CC[C@@](O)(C#Cc2cccc(-n3nc(C(N)=O)c4c3CCN([S@+](C)[O-])C4)c2)C1=O [Compound 124, 1-[3-[2-[(3R)-3-hydroxy-1-methyl-2-oxo-pyrrolidin-3-yl]ethynyl]phenyl]-5-[(S)-methylsulfinyl]-6,7-dihydro-4H-pyrazolo[4,3-c]pyridine-3-carboxamide] | 46.4
11 | CN1C[C@H](O)[C@@](O)(C#Cc2cccc(-n3nc(C(N)=O)c4ccccc43)c2)C1=O [Compound 125, 1-[3-[2-[(3S,4S)-3,4-dihydroxy-1-methyl-2-oxo-pyrroli-din-3-yl]ethynyl]phenyl]in-dazole-3-carboxamide] | 19.6
12 | CN1C[C@@H](O)[C@@](O)(C#Cc2cccc(-n3nc(C(N)=O)c4ccccc43)c2)C1=O [Compound 126, 1-[3-[2-[(3S,4R)-3,4-dihydroxy-1-methyl-2-oxo-pyrroli-din-3-yl]ethynyl]phenyl]inda-zole-3-carboxamide] | 591
13 | CN1C[C@@H](O)[C@](O)(C#Cc2cccc(-n3nc(C(N)=O)c4ccccc43)c2)C1=O [Compound 127, 1-[3-[2-[(3R,4R)-3,4-dihydroxy-1-methyl-2-oxo-pyrroli-din-3-yl]ethynyl]phenyl]inda-zole-3-carboxamide] | 10.2
14 | CN1C[C@H](O)[C@](O)(C#Cc2cccc(-n3nc(C(N)=O)c4ccccc43)c2)C1=O [Compound 128, 1-[3-[2-[(3R,4S)-3,4-dihydroxy-1-methyl-2-oxo-pyrroli-din-3-yl]ethynyl]phenyl]inda-zole-3-carboxamide] | 1250
15 | N#Cc1cc2c(cn1)c(C(N)=O)nn2-c1cccc(C#C[C@]2(O)CCc3cccnc32)c1 [Compound 134, 6-cyano-1-[3-[2-[(7R)-7-hy-droxy-5,6-dihydrocyclopen-ta[b]pyridin-7-yl]ethynyl]phe-nyl]pyrazolo[4,3-c]pyridine-3-carboxamide] | 1250
16 | CN(Cc1ccc2c(c1)c(C(N)=O)nn2-c1cc(C#C[C@]2(O)CCN(C)C2=O)ccn1)C(=O)CCCN [Compound 141, 5-[[4-aminobutanoyl(meth-yl)amino]methyl]-1-[4-[2-[(3R)-3-hydroxy-1-methyl-2-oxo-pyrrolidin-3-yl]ethynyl]-2-pyridyl]indazole-3-carbox-amide] | 3.27
17 | CN(C)C(=O)C(O)C#Cc1cccc(-n2nc(C(N)=O)c3ccccc32)c1 (centres unmarked) [Compound 163, 1-[3-[4-(dimethyalmino)-3-hydroxy-4-oxo-but-1-ynyl]phenyl]indazole-3-carboxamide] | 250
18 | CN1CC[C@@](O)(C#Cc2cccc(-n3nc(C(N)=O)c4c3[C@@H](O)CC4)c2)C1=O [Compound 168, (6S)-6-hydroxy-1-[3-[2-[(3R)-3-hydroxy-1-methyl-2-oxo-pyrrolidin-3-yl]ethynyl]phenyl]-5,6-dihydro-4H-cyclo-penta[c]pyrazole-3-carbox-amide] | 33.7
19 | NC(=O)c1nn(-c2cccc(C#C[C@]3(O)CCOC3=O)c2)c2ccccc12 [Compound 171, 1-[3-[2-[(3R)-3-hydroxy-2-oxo-tetrahydrofuran-3-yl]eth-ynyl]phenyl]indazole-3-carbox-amide] | 8.12
20 | NC(=O)c1nn(-c2cccc(C#C[C@@]3(O)CCOC3=O)c2)c2ccccc12 [Compound 172, 1-[3-[2-[(3)S-3-hydroxy-2-oxo-tetrahydrofuran-3-yl]eth-ynyl]phenyl]indazole-3-carbox-amide] | 473
21 | CN1CC[C@@](O)(C#Cc2cccc(-c3nc(C(N)=O)c4ccc(C(N)=O)cn34)c2)C1=O [Compound 179, 3-[3-[2-[(3R)-3-hydroxy-1-methyl-2-oxo-pyrrolidin-3-yl]ethynyl]phenyl]imidazo [1,5-a]pyridine-1,6-dicarboxamide] | 11.1

Stronger by Ki, values ahead:

Row | Ki [nM] | Compound
22 | 1.82 | CC(=O)N1CC(c2cnc3c(c2)c(C(N)=O)nn3-c2cccc(C#C[C@]3(O)CCN(C)C3=O)c2)C1 [Compound 107, 5-(1-acetylazetidin-3-yl)-1-[3-[2-[(3R)-3-hydroxy-1-meth-yl-2-oxo-pyrrolidin-3-yl]ethynyl]phenyl]pyrazolo[3,4-b]pyridine-3-carboxamide]
23 | 1.54 | CN1CC[C@](O)(C#Cc2cccc(-n3nc(C(N)=O)c4c3C(=O)NC4)c2)C1=O [Compound 143, 1-[3-[2-[(3S)-3-hydroxy-1-methyl-2-oxo-pyrrolidin-3-yl]ethynyl]phenyl]-6-oxo-4,5-dihydropyrrolo[3,4-c]pyra-zole-3-carboxamide]
24 | 1.31 | CN1CC[C@@](O)(C#Cc2cccc(-n3nc(C(N)=O)c4cnc(C#N)cc43)c2)C1=O [Compound 133, 6-cyano-1-[3-[2-[(3R)-3-hy-droxy-1-methyl-2-oxo-pyrroli-din-3-yl]ethynyl]phenyl] pyrazolo[4,3-c]pyridine-3-carboxamide]
25 | 1.27 | CN1CC[C@@](O)(C#Cc2cccc(-n3nc(C(N)=O)c4cccc(F)c43)c2)C1=O [Compound 176, 7-fluoro-1-[3-[2-[(3R)-3-hydroxy-1-methyl-2-oxo-pyrrolidin-3-yl]ethynyl]phenyl] indazole-3-carboxamide]
26 | 0.63 | NC(=O)c1nn(-c2cccc(C#C[C@]3(O)CCCC3=O)c2)c2ccccc12 [Compound 116, 1-[3-[2-[(1R)-1-hydroxy-2-oxo-cyclopentyl]ethynyl]phe-nyl]indazole-3-carboxamide]
27 | 0.39 | CN1CC[C@@](O)(C#Cc2cccc(-n3nc(C(N)=O)c4cnc(N5CC[C@H](O)C5)cc43)c2)C1=O [Compound 139, 1-[3-[2-[(3R)-3-hydroxy-1-methyl-2-oxo-pyrrolidin-3-yl]ethynyl]phenyl]-6-[(3S)-3-hydroxypyrrolidin-1-yl]pyra-zolo[4,3-c]pyridine-3-carbox-amide]
28 | 0.35 | CN1CC[C@@](O)(C#Cc2cccc(-n3nc(C(N)=O)c4c3CCC(=O)N4)c2)C1=O [Compound 180, 1-[3-[2-[(3R)-3-hydroxy-1-methyl-2-oxo-pyrrolidin-3-yl]ethynyl]phenyl]-5-oxo-6,7-dihydro-4H-pyrazolo [4,3-b]pyridine-3-carboxamide]
29 | 0.24 | CN1CC[C@@](O)(C#Cc2cccc(-n3nc(C(N)=O)c4[nH]c(=O)ccc43)c2)C1=O [Compound 108, 1-[3-[2-[(3R)-3-hydroxy-1-methyl-2-oxo-pyrrolidin-3-yl]ethynyl]phenyl]-5-oxo-4H-pyrazolo[4,3-b]pyridine-3-carboxamide]
30 | 0.19 | CN1CC[C@@](O)(C#Cc2cccc(-n3nc(C(N)=O)c4cnc(N5CC[C@@H](O)C5)cc43)c2)C1=O [Compound 138, 1-[3-[2-[(3R)-3-hydroxy-1-methyl-2-oxo-pyrrolidin-3-yl]ethynyl]phenyl]-6-[(3R)-3-hydroxypyrrolidin-1-yl]pyra-zolo[4,3-c]pyridine-3-carbox-amide]
31 | 0.08 | CNC(=O)c1ccc2c(c1)c(C(N)=O)nn2-c1cccc(C#C[C@]2(O)CCN(C)C2=O)c1 [Compound 112, 1-[3-[2-[(3R)-3-hydroxy-1-methyl-2-oxo-pyrrolidin-3-yl]ethynyl]phenyl]-N5-meth-yl-indazole-3,5-dicarbox-amide]
32 | 0.05 | Cc1cn(-c2ccc3c(c2)c(C(N)=O)nn3-c2cccc(C#C[C@]3(O)CCN(C)C3=O)c2)cn1 [Compound 106, 1-[3-[2-[(3R)-3-hydroxy-1-methyl-2-oxo-pyrrolidin-3-yl]ethynyl]phenyl]-5-(4-meth-ylimidazol-1-yl)indazole-3-carboxamide]
